The values below come from US7776907B2, “Methods for the treatment and management of macular degeneration using cyclopropyl-N-{2-[(1S)-1-(3-ethoxy-4-methoxyphenyl)-2-(methylsulfonyl)ethyl]-3-oxoisoindoline-4-yl}carboxamide” (Celgene Corporation, priority 2002, dated 2010).

Data set [1] concerns patients with macular degeneration. Kind of data set: Clinical study in patients with macular degeneration, adjuvant to photodynamic therapy with verteporfin. Format: in vivo, human. Conditions: about 20 mg/day as adjuvant to verteporfin photodynamic therapy for 20 weeks. The protocol: Selective cytokine inhibitory drugs of the invention are administered in an amount of about 20 to about 1,200 mg per day to patients with macular degeneration. In a specific embodiment, clinical studies are performed with forty patients with macular degeneration, who are divided into two groups. The first group receives conventional treatment for closing the leaking choroidal vessels (characteristic of this disease) by photodynamic therapy with verteporfin. Ophthalmol 1999 (117): 1329-1345. The second group receives the same conventional therapy with verteporfin and (+)-2-[1-(3-ethoxy-4 methoxy-phenyl)-2-methylsulfonylethyl]-4 acetylaminoisoindoline 1,3-dione in an amount of about 20 mg/day as an adjuvant for 20 weeks.
However, the first group without (+)-2-[1-(3-ethoxy-4 methoxyphenyl)-2-methylsulfonylethyl]-4 acetylaminoisoindoline 1,3-dione experiences progressive reperfusion of the ablated vessels several weeks after treatment. Progressive visual loss follows which requires the photodynamic therapy to be repeated.

Data set [2] deals with TNF-α production. Briefly: In vitro pharmacology studies: inhibition of TNF-α production following LPS-stimulation of human PBMC and human whole blood. The data set is classed as cell-based. Conditions: compared with thalidomide. From the text: One of the biological effects typically exerted by selective cytokine inhibitory drugs is the reduction of synthesis of TNF-α. Specific selective cytokine inhibitory drugs enhance the degradation of TNF-α mRNA. TNF-α may play a pathological role in macular degeneration.
In a specific embodiment, the pharmacological properties of 3-(3,4-dimethoxy-phenyl)-3-(1-oxo-1,3-dihydro-isoindol-2-yl)-propionamide are characterized in in vitro studies. Studies examine the effects of the compound on the production of various cytokines. Inhibition of TNF-α production following LPS-stimulation of human PBMC and human whole blood by the compound is investigated in vitro. […] The pharmacological effects of 3-(3,4-dimethoxy-phenyl)-3-(1-oxo-1,3-dihydro-isoindol-2-yl)-propionamide may derive from its action as an inhibitor of the generation of inflammatory cytokines.

Data set [3] concerns laser-induced CNVM. To be noted: intravitreal injection, monkeys; cited from earlier work.
The subject of data set [4] is patients with MD. Conditions: intravitreal injection, one-year period, randomized trial; cited from earlier work.
Data set [5] deals with MD. To be noted: cited from earlier work.
The conditions of data set [6]: animal models; cited from earlier work.

In the case of `CCOc1cc(C(CS(C)(=O)=O)N2C(=O)c3cccc(NC(C)=O)c3C2=O)ccc1OC` (single isomer, unassigned; (+)) [(+)-2-[1-(3-ethoxy-4 methoxyphenyl)-2-methylsulfonylethyl]-4 acetylaminoisoindoline 1,3-dione], in data set [1], the “effect on neovascular cascade / duration of effects of photodynamic therapy” value was “neovascular cascade is sufficiently hindered”.

With `COc1ccc(C(CC(N)=O)N2Cc3ccccc3C2=O)cc1OC` (stereo not shown) [3-(3,4-Dimethoxy-phenyl)-3-(1-oxo-1,3-dihydro-isoindol-2-yl)-propionamide], the “pharmacological activity profile, potency relative to thalidomide” value in data set [2] is on record as “five to fifty times more potent than thalidomide”.

`C[C@]12C=CC(=O)C=C1CC[C@H]1[C@@H]3C[C@@H](O)[C@](O)(C(=O)CO)[C@@]3(C)C[C@H](O)[C@@]12F` [triamcinolone]: the “growth of laser-induced CNVM” value in data set [3] was “inhibits the growth of laser-induced CNVM”. Further, the “prevention of severe visual loss” value in data set [4] was “fails to prevent severe visual loss”.

For the compound interferon-α, the “efficacy at treating MD” value in data set [5] (clinical trial, Arch. Ophthalmol. 115:865-72 (1997)) is “ineffective at treating MD”. Moreover, the adverse effects entry in data set [5] (human, in vivo) was “high rate of adverse effects”.

For verteporfin, the accumulation in tissue entry in data set [6] is “also accumulates in the retina”.
